Biological target: T1, human CD73 (Homo sapiens, UniProt P21589)
T1 construct: host or cells: CHO-K1 (suspension pool CHO-CD73)
T1 sequence (P21589 27-549): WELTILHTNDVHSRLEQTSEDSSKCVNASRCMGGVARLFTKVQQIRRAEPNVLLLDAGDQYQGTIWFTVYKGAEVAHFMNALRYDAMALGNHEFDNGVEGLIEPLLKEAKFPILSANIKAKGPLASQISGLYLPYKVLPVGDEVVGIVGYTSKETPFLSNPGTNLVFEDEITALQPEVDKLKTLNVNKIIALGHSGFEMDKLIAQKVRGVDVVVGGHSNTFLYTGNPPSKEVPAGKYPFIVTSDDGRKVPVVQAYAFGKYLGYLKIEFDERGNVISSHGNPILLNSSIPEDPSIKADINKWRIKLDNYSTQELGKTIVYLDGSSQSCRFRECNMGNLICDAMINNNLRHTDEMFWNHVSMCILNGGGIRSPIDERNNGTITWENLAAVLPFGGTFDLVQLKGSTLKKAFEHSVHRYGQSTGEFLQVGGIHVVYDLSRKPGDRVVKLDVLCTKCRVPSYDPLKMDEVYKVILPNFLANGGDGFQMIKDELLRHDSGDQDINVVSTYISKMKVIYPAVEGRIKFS
Experiment: Inhibition of ecto-5′-nucleotidase (CD73) activity in CHO-CD73 cells, phosphate colorimetric readout
Type: cell-based
Conditions: CHO-K1 cells stably transfected with human CD73, 2500 cells per well, 25 μM AMP substrate, 50 minutes incubation at 37° C.; read-out: Potency: CD73 IC50
Method: Inhibition of Ecto-5′-nucleotidase Activity. Compounds were evaluated to determine their ecto-5′-nucleotidase (CD73) inhibitory activity. Briefly, CHO-K1 cells stably transfected with human CD73 were generated by LakePharma (Belmont, CA) using molecular cloning of human CD73 (http://www.uniprot.org/uniprot/P21589) and mammalian transient expression vector (P21589.1). After antibiotic selection in CD OptiCHO cell media (Invitrogen, Catalog #12681-011) containing 5 μg/mL Puromycin and 200 μg/mL Hygromycin B, a suspension pool of CHO-CD73 cells was collected and frozen in 7.5% DMSO in cell media without antibiotics.
On the day of the experiment, one vial of CHO-CD73 cells was thawed and suspended in assay media which consisted of 20 mM HEPES, pH 7.4, 137 mM NaCl, 5.4 mM KCl, 1.3 mM CaCl2), 4.2 mM NaHCO3 and 0.1% glucose. To test the ability of compounds to inhibit CD73 enzymatic activity, 2 μL of 500 μM of compounds dissolved in DMSO (50×) were added to a 96-well polystyrene plate containing 58 μL of assay buffer. Next, 20 μL of CHO-CD73 cells in assay buffer were added to assay plate followed by 20 μL of 125 μM AMP (Adenosine 5′-monophosphate monohydrate) in assay buffer. Final assay conditions consisted of 2500 cells per well in 2% DMSO and 25 μM of AMP substrate. After 50 minutes of incubation (37° C. and 5% CO2) and centrifugation at 225×g for 5 mins, 80 μL of supernatant were transferred to a 96-well Spectra Plate (PerkinElmer, cat #6005640) which was pre-dispensed with 20 μL of PiColorLock Gold colorimetric assay reagents (Thermo, cat #30 300 30). The amount of inorganic phosphate was determined by reading the absorbance at 620 nm on an EnVision Multilabel Plate Reader (PerkinElmer). Enzymatic activity of CD73 was based on the amount of phosphate generated. Percentage of activity was calculated based on DMSO and no cells control wells. IC50 values of compounds were determined by four parameter non-linear regression fitting of percentage of activity in GraphPad Prism software.

In the case of `COC(=O)c1ccccc1OP(=O)(CP(=O)(Oc1ccccc1C(=O)OC)Oc1ccccc1C(=O)OC)OC[C@H]1O[C@@H](n2cnc3c(N(C)C4CCCC4)nc(Cl)nc32)[C@H](O)[C@@H]1O` (stereo partly drawn), the IC50 is reported as > 1000 nM.

With `O=P(O)(O)CP(=O)(O)OC[C@H]1O[C@@H](n2cnc3c(N4Cc5ccccc5C4)nc(Cl)nc32)[C@@H](F)[C@@H]1O` the IC50 was < 100 nM.

With `O=P(O)(O)CP(=O)(O)OC[C@H]1O[C@@H](n2cnc3c(NCc4ccccc4)nc(C#Cc4ccccc4)nc32)[C@@H](F)[C@@H]1O` the IC50 was < 100 nM.

For `C[C@H](Nc1nc(Cl)nc2c1cnn2[C@@H]1O[C@H](COP(=O)(O)CP(=O)(O)O)[C@@H](O)[C@@H]1F)c1cccc(F)c1`, the IC50 was < 100 nM.

`C[C@H](Nc1cc(Cl)nc2c1cnn2[C@@H]1O[C@H](COP(=O)(O)CP(=O)(O)O)[C@@H](O)[C@@H]1F)c1ccccc1` was tested, and the IC50 was < 100 nM.

With `CN(Cc1ccccc1Cl)c1nc(Cl)nc2c1cnn2[C@@H]1O[C@H](COP(=O)(O)CP(=O)(O)O)[C@@H](O)[C@H]1O` the IC50 was < 100 nM.

For `O=P(O)(O)CP(=O)(O)OC[C@H]1O[C@@H](n2cnc3c(NCc4ccccc4)nc(-c4ccccc4)nc32)[C@@H](F)[C@@H]1O`, the IC50 was < 100 nM.

`C[C@@H](Nc1nc(Cl)nc2c1cnn2[C@@H]1O[C@H](COP(=O)(O)CP(=O)(O)O)[C@@H](O)[C@H]1O)c1ccc(F)cc1` was tested, and the IC50 was < 100 nM.

With `C[C@@H](Nc1nc(Cl)nc2c1cnn2[C@@H]1O[C@H](COP(=O)(O)CP(=O)(O)O)[C@@H](O)[C@@H]1F)c1ccc(F)cc1` the IC50 was < 100 nM.

With `C[C@@H](Nc1nc(Cl)nc2c1cnn2[C@@H]1O[C@H](COP(=O)(O)CP(=O)(O)O)[C@@H](O)[C@@H]1F)c1cccc(F)c1` the IC50 was < 100 nM.

In the case of `O=P(O)(O)CP(=O)(O)OC[C@H]1O[C@@H](n2cnc3c(NCc4ccc(Br)cc4)ncnc32)[C@H](O)[C@@H]1O`, the IC50 is reported as < 100 nM.

`O=P(O)(O)CP(=O)(O)OC[C@H]1O[C@@H](n2cnc3c(N4CCCCC4)nc(Cl)nc32)[C@@H](F)[C@@H]1O` was tested, and the IC50 was < 100 nM.

In the case of `CNc1nc(Cl)nc2c1ncn2[C@@H]1O[C@H](COP(=O)(O)CP(=O)(O)O)[C@@H](O)[C@@H]1F`, the IC50 is reported as < 100 nM.

`COc1nc(NCc2ccccc2)c2ncn([C@@H]3O[C@H](COP(=O)(O)CP(=O)(O)O)[C@@H](O)[C@H]3O)c2n1` was tested, and the IC50 was < 100 nM.

With `O=P(O)(O)CP(=O)(O)OC[C@H]1O[C@@H](n2cnc3c(NCC4CC4)nc(Cl)nc32)[C@@H](F)[C@@H]1O` the IC50 was < 100 nM.

In the case of `O=P(O)(O)CP(=O)(O)OC[C@H]1O[C@@H](n2cnc3c(NCc4cccc(Cl)c4)nc(Cl)nc32)[C@@H](F)[C@@H]1O`, the IC50 is reported as < 100 nM.

For `COP(=O)(O)CP(=O)(O)OC[C@H]1O[C@@H](n2cnc3c(N(C)C4CCCC4)nc(Cl)nc32)[C@@H](F)[C@@H]1O`, the IC50 was 100 to 1000 nM.

With `O=P(O)(O)CP(=O)(O)OC[C@H]1O[C@@H](n2cnc3c(NCc4ccncc4)nc(Cl)nc32)[C@@H](F)[C@@H]1O` the IC50 was < 100 nM.

In the case of `O=P(O)(O)CP(=O)(O)OC[C@H]1O[C@@H](n2cnc3c(NC4CCCC4)nc(Cl)nc32)[C@@H](F)[C@@H]1O`, the IC50 is reported as < 100 nM.

`C[C@H](Nc1nc(Cl)nc2c1ccn2[C@@H]1O[C@H](COP(=O)(O)CP(=O)(O)O)[C@@H](O)[C@H]1O)c1ccc(F)cc1` was tested, and the IC50 was < 100 nM.

`O=P(O)(O)CP(=O)(O)OC[C@H]1O[C@@H](n2ncc3c(NC4CCCC4)nc(Cl)nc32)[C@H](O)[C@@H]1O` was tested, and the IC50 was < 100 nM.

With `O=P(O)(O)CP(=O)(O)OC[C@H]1O[C@@H](n2ncc3c(NCc4ccccc4Cl)nc(Cl)nc32)[C@H](O)[C@@H]1O` the IC50 was < 100 nM.

In the case of `C[C@H](Nc1nc(Cl)nc2c1cnn2[C@@H]1O[C@H](COP(=O)(O)CP(=O)(O)O)[C@@H](O)[C@H]1O)c1ccccc1`, the IC50 is reported as < 100 nM.

`Cc1nc(NCc2ccccc2)c2ncn([C@@H]3O[C@H](COP(=O)(O)CP(=O)(O)O)[C@@H](O)[C@@H]3F)c2n1` was tested, and the IC50 was < 100 nM.

`CN(c1nc(Cl)nc2c1ncn2[C@@H]1O[C@H](COP(=O)(O)CP(=O)(O)O)[C@@H](O)[C@@H]1F)C1CCCC1` was tested, and the IC50 was < 100 nM.

In the case of `O=P(O)(O)CP(=O)(O)OC[C@H]1O[C@@H](n2ncc3c(NCc4ccccc4)nc(Cl)nc32)[C@@H](F)[C@@H]1O`, the IC50 is reported as < 100 nM.

With `CCc1nc(NCc2ccccc2)c2ncn([C@@H]3O[C@H](COP(=O)(O)CP(=O)(O)O)[C@@H](O)[C@H]3O)c2n1` the IC50 was < 100 nM.

From US12459967B2, “Modulators of 5′-nucleotidase, ecto and the use thereof” (Arcus Biosciences, Inc., priority 2016, dated 2025)
